From paper PMC6240685, “Strong Inhibitory Effect, Low Cytotoxicity and High Plasma Stability of Steroidal Inhibitors of N-Methyl-D-Aspartate Receptors With C-3 Amide Structural Motif” (Frontiers in Pharmacology, 2018)
Like-named read-outs stand apart in the source and are kept apart here.

How the values were obtained:
GluN1/GluN2B receptors = molecular target: T1, GluN1/GluN2B receptors (Rattus norvegicus, UniProt P35439+Q00960); assay: Patch-clamp inhibition of glutamate responses of GluN1/GluN2B receptors in transfected HEK293 cells; type: cell-based
T1 construct: expressed in transfected cells; host or cells: HEK293
T1 sequence (Q00960 27-1482, other chains not shown): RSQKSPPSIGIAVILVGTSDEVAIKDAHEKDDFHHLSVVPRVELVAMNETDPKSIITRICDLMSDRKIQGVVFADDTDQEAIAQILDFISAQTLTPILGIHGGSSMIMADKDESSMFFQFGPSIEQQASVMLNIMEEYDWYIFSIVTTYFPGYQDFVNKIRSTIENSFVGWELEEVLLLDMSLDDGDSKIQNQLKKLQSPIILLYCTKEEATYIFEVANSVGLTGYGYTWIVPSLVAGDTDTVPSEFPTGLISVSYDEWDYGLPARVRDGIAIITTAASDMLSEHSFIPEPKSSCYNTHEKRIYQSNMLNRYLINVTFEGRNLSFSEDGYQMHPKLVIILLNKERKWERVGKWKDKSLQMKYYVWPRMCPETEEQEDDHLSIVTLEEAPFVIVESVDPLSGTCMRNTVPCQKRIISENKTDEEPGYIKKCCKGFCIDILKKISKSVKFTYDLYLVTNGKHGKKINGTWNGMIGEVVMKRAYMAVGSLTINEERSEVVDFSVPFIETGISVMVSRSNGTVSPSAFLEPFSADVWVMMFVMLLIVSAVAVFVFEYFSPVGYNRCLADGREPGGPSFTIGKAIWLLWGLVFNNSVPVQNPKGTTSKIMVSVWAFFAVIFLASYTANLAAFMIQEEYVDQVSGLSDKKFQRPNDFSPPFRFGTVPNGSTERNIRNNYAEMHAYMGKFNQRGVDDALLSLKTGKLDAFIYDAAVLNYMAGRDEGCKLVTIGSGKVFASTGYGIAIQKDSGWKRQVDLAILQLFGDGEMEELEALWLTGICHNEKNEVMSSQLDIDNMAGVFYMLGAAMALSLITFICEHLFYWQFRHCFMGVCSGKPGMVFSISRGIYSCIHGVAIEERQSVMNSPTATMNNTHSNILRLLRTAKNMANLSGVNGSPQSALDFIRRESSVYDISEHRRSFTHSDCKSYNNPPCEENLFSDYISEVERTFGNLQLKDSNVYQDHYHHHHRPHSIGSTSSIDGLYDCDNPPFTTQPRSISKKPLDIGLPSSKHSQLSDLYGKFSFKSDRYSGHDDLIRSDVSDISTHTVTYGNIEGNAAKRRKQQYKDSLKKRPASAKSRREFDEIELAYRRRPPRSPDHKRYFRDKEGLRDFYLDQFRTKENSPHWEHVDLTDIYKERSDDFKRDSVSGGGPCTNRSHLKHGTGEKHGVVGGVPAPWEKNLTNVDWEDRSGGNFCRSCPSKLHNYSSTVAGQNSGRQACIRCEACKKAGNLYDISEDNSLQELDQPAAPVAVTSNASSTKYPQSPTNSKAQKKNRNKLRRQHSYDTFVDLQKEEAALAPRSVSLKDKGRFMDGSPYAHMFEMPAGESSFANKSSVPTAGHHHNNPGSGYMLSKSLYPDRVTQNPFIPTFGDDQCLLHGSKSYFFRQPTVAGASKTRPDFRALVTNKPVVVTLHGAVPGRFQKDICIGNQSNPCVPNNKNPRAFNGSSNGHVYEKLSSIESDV

HepG2 cells [1] = assay: Mitotoxicity, XTT viability in glucose vs galactose medium; conditions: for Glu/Gal index (fold change): 24 h, HepG2, index higher than 3 indicates potential mitochondrial toxicity; for IC50: Homo sapiens, HepG2, 24 h
Protocol: (§1) (A) Hepatotoxicity provoked by compound 4 was assessed after 72 h incubation of HepG2 cells in low glucose medium (5 mM) in the presence of compound 4 (0.25–100 μM). (B) Mitochondrial toxicity was determined after 24 h incubation of HepG2 cells in either high glucose medium (25 mM) or galactose medium (10 mM) in the presence of compound 4 (2.5–150 μM). Cell viabilities were recorded in triplicates in three independent experiments and expressed as percentage of vehicle control ± SD and IC50 values were determined by GraphPad Prism software using following equation: Y = Bottom + (Top–Bottom)/(1 + 10ˆ((LogIC50-X)^∗HillSlope)), where IC50 is the concentration of compound 4 that inhibits cell viability half way between Bottom and Top plateaus, X is compound 4 concentration and HillSlope describes the steepness of the family of curves. […] (C) Concentration-dependent effect on ROS level. HepG2 cells were treated with compound 4 (0.25–100 μM) for 72 h, and then the intracellular level of total ROS in relative fluorescence units (RFU) was detected. The data are presented as the mean ± SD for at least three independent experiments and each experiment was carried out in triplicate. Final concentration of DMSO in samples was 1%. […] Single asterisks (^∗) indicate a significant difference (P < 0.05) compared to 1% DMSO control (one-way ANOVA with Dunnett’s post-test).
(§2) HepG2 cells (ATCC®, United Kingdom) were grown in complete Minimal Essential Medium (EMEM) (5.5 mM glucose) medium, supplemented with 10% (v/v) fetal calf serum, 200 μg/mL of streptomycin, 200 U/mL of penicillin G and 4 mM glutamine. They were cultured under a humidified atmosphere containing 5% CO2 at 37°C.
(§3) The cytotoxicity of the tested compounds was assessed with use of XTT cell proliferation kit II (Roche Diagnostics GmbH, Mannheim, Germany) according to the manufacturer’s instructions. Briefly HepG2 cells were seeded in a 96-well plate at a density of 22,000 cells per well. After 24 h, the tested neurosteroids in a concentration range from 0.5 to 200 μM were added to the culture media and incubated for 72 h before the XTT dye was added. Mitochondrial toxicity was assessed in HepG2 cells using glucose and galactose conditioned media and XTT assay as a read out for cell viability. In brief, cells were seeded onto 96 well, clear bottom tissue culture plates at a density of 22,000 cells/well and left overnight to attach. Six hours prior to the neurosteroids treatment the media was replaced with 100 μL DMEM media containing either glucose (25 mM glucose; 1 mM pyruvate; 2 mM glutamine, 10% FBS) or galactose (10 mM galactose, 1 mM pyruvate, 6 mM glutamine, 10% FBS). After that, the tested neurosteroids in a concentration range from 0.5 to 200 μM were added in the fresh appropriate assay medium (glucose or galactose) and incubated for 24 h before the XTT dye was added. The XTT absorbance was recorded at 495 nm after 1 h incubation with the dye. Compounds were dissolved in DMSO to produce the stock solutions at the concentration of 10 mM, with exception of PAG, 1, 6 (5 mM), and 11 (2.5 mM). Results were expressed as percentages of change in viability compared to appropriate DMSO control. IC50 values were determined by GraphPad Prism version 5.00 for Windows (GraphPad Software, La Jolla, CA, United States). All experiments were done in triplicates in three independent experiments to check the reproducibility.

HepG2 cells [2] = assay: Hepatotoxicity, XTT viability after 72 h; type: cell-based; conditions: Homo sapiens; 72 h, HepG2, 5.5 mM glucose; read-out: Hepatotoxicity IC50, 5.5 mM glucose
Protocol: Then, the cell viability (XTT assay) and reactive oxygen species (ROS) induction were evaluated.
as §1, §2, §3

HepG2 cells [3] = assay: ROS induction (CM-H2DCFDA); type: cell-based; conditions: Homo sapiens, HepG2, 72 h; read-out: ROS induction EC50
Protocol: as §1
The effect of neurosteroids on oxidative stress was determined using general oxidative stress indicator CM-H2DCFDA (Thermo Fisher Scientific, Waltham, MA, United States) according to the manufacturer’s instructions. Briefly HepG2 cells were seeded in a 96-well plate at a density of 13,500 cells per well. After 24 h, the tested neurosteroids were added to the culture media and incubated for 72 h. Subsequently, cells were washed with HBSS, treated with 100 μL of 1 μM CM-H2DCF-DA solution in HBSS and incubated for 1 h in the dark at 37°C. Finally, cells were washed three times with HBSS and the fluorescence was measured using 495 excitation and 527 emission in fluorescence microplate reader (Cytation 3, Winooski, VT, United States). IC50 index values were determined by GraphPad Prism version 5.00 for Windows (GraphPad Software, La Jolla, CA, United States).

[4] = Plasma stability, rat plasma; type: in vitro ADME
[5] = Plasma stability, human plasma; type: in vitro ADME
Protocol: Then, 37.8 μL of stock solution was added to 1400 μL of human plasma, maintained at 37°C. Aliquots (50 μL) withdrawn at 0, 1, 4, 8, and 24 h were analyzed by HPLC. […] The supernatant was transferred to an autosampler vial and 1 μL was injected onto LC-MS system. The samples were analyzed with an Agilent 1260 HPLC (Agilent Technologies) coupled to ESI-TOF Agilent 6530 (Agilent Technologies) with Agilent Jet Stream Technology. Samples were separated on a Waters ACQUITY UPLC CSH Phenyl-Hexyl (100 × 2.1, 130 Å, 1.7 μm) at a flow rate 0.3 ml/min. […] The mass spectrometry instrument was operated in a negative ion mode with a voltage of +3.00 kV applied to the capillary. The temperature, the flow rate of the nitrogen drying gas, the pressure of the nitrogen nebulizing gas, and the flow rate of the sheath gas were set at 325°C, 10 l/min, 40 psi, 390°C, and 11 l/min, respectively. Results are represented as a percentage of a compound remaining in spiked human plasma.

[6] = as repeated in Table 2, read-out: IC50
[7] = current responses to glutamate, HEK293, IC50 from single steroid dose, Hill coefficient fixed at 1.2, read-out: IC50 ± SD
[8] = read-out: Mitotoxicity IC50, 10 mM galactose
[9] = read-out: Mitotoxicity IC50, 25 mM glucose

Row | Structure (SMILES) | ΔGexp (GluN1/GluN2B receptors) [kcal/mol] | IC50 (GluN1/GluN2B receptors; [6]) [µM] | IC50 ± SD (GluN1/GluN2B receptors; current responses to glutamate, HEK293, IC50 from single steroid dose, Hill coefficient fixed at 1.2) | IC50 (GluN1/GluN2B receptors; [7]) [µM] | Glu/Gal index (fold change) (HepG2 cells [1]) | IC50 (HepG2 cells [1]; [8]) [µM] | IC50 (HepG2 cells [1]; [9]) [µM] | IC50 (HepG2 cells [2]) [µM] | EC50 (HepG2 cells [3]) [µM] | remaining at 8 h, 42.1 μg/mL ([4]; rat plasma, 8 h, 37°C, read-out: Plasma stability (% remaining after 8 h), Rat) [%] | remaining at 8 h, 42.1 μg/mL ([5]; human plasma, 8 h, 37°C, read-out: Plasma stability (% remaining after 8 h), Human) [%] | remaining at 8 h, 42.1 μg/mL ([4]; rat, plasma) [%] | remaining at 8 h, 42.1 μg/mL ([5]; human, plasma) [%] | melting point [°C]
1 | C[C@@]12CCC[C@H]1[C@@H]1CC[C@@H]3C[C@H](NC(=O)C(=O)O)CC[C@]3(C)[C@H]1CC2 [Compound 1, 2-(((3R,5R,8S,9S,10S,13S,14S)-10,13-dimethylhexadecahydro-1H-cyclopenta[a]phenanthren-3-yl)amino)-2-oxoacetic acid] | -6.39 | 21.7 | least inhibitory activity | 21.7 ± 4.8 | 1.97 | 72 ± 9 | 142 ± 12 | 42 ± 7 | 52 ± 6 | 100 | 100 |  |  | 
2 | C[C@@]12CCC[C@H]1[C@@H]1CC[C@@H]3C[C@H](NC(=O)CC(=O)O)CC[C@]3(C)[C@H]1CC2 [Compound 2, 3-(((3R,5R,8S,9S,10S,13S,14S)-10,13-dimethylhexadecahydro-1H-cyclopenta[a]phenanthren-3-yl)amino)-3-oxopropanoic acid] | -6.59 |  |  |  | 1.32 | 174 ± 12 | > 200 | 148 ± 14 | 165 ± 18 |  |  | 100 | 98 | 
3 | C[C@@]12CCC[C@H]1[C@@H]1CC[C@@H]3C[C@H](NC(=O)CCC(=O)O)CC[C@]3(C)[C@H]1CC2 [Compound 3, 4-(((3R,5R,8S,9S,10S,13S,14S)-10,13-dimethylhexadecahydro-1H-cyclopenta[a]phenanthren-3-yl)amino)-4-oxobutanoic acid] | -6.78 | 11.2 |  | 11.2 ± 7.2 |  | > 200 | > 200 | > 200 | > 200 |  |  | 100 | 98 | 
4 | C[C@@]12CCC[C@H]1[C@@H]1CC[C@@H]3C[C@H](NC(=O)CCCC(=O)O)CC[C@]3(C)[C@H]1CC2 [Compound 4, 5-(((3R,5R,8S,9S,10S,13S,14S)-10,13-dimethylhexadecahydro-1H-cyclopenta[a]phenanthren-3-yl)amino)-5-oxopentanoic acid] | -6.92 | 8.9 |  | 8.9 ± 1 |  | 11 ± 3 | 48 ± 6 | 4 ± 0.2 | 7 ± 2 |  |  | 99 | 96 | 
5 | CC(C)(C)OC(=O)N[C@@H](CC(=O)O)C(=O)N[C@@H]1CC[C@@]2(C)[C@H](CC[C@H]3[C@@H]4CCC[C@@]4(C)CC[C@@H]32)C1 [Compound 5, (S)-3-((tert-butoxycarbonyl)amino)-4-(((3R,5R,8S,9S,10S,13S,14S)-10,13-dimethylhexadecahydro-1H-cyclopenta[a]phenanthren-3-yl)amino)-4-oxobutanoic acid] | -7.22 | 5.4 |  | 5.4 ± 2.3 |  | > 200 | > 200 | > 200 | > 200 |  |  | 93 | 100 | 
6 | CC(C)(C)OC(=O)N[C@@H](CCC(=O)O)C(=O)N[C@@H]1CC[C@@]2(C)[C@H](CC[C@@H]3[C@@H]4CCC[C@@]4(C)CC[C@@H]32)C1 [Compound 7, (S)-4-((tert-butoxycarbonyl)amino)-5-(((3R,5R,8R,9S,10S,13S,14S)-10,13-dimethylhexadecahydro-1H-cyclopenta[a]phenanthren-3-yl)amino)-5-oxopentanoic acid] | -7.22 | 5.4 |  | 5.4 ± 2.4 |  | > 200 | > 200 | > 200 | > 200 |  |  | 94 | 97 | 
7 | C[C@@]12CCC[C@H]1[C@@H]1CC[C@@H]3C[C@H](NC(=O)[C@@H](N)CCC(=O)O)CC[C@]3(C)[C@H]1CC2 [Compound 8, (S)-4-amino-5-(((3R,5R,8S,9S,10S,13S,14S)-10,13-dimethylhexadecahydro-1H-cyclopenta[a]phenanthren-3-yl)amino)-5-oxopentanoic acid] | -8.02 | 1.4 |  | 1.4 ± 0.2 | 1.04 | 94 ± 14 | 98 ± 11 | 65 ± 5 | 71 ± 9 |  |  | 95 | 98 | 
8 | CC(C)(C)OC(=O)N[C@@H](CC(=O)N[C@@H]1CC[C@@]2(C)[C@H](CC[C@H]3[C@@H]4CCC[C@@]4(C)CC[C@@H]32)C1)C(=O)O [Compound 9, (S)-2-((tert-butoxycarbonyl)amino)-4-(((3R,5R,8S,9S,10S,13S,14S)-10,13-dimethylhexadecahydro-1H-cyclopenta[a]phenanthren-3-yl)amino)-4-oxobutanoic acid] | -7.33 | 4.5 |  | 4.5 ± 0.6 |  | > 200 | > 200 | > 200 | > 200 |  |  | 99 | 100 | 154 to 157
9 | CS(=O)(=O)Nc1ccc([N+](=O)[O-])cc1Oc1ccccc1 [Nimesulide, nimesulide, reference compound] |  |  |  |  | 3.88 | 18 ± 4 | 72 ± 8 | 2.2 ± 0.3 | 3.5 ± 0.5 |  |  |  |  | 
